Experimental data as given in patent publication EP2140864A2 (H. Lundbeck A/S, priority 2001, dated 2002).

target: T1, human 5HT4 receptor (Homo sapiens, UniProt Q13639); test: Radioligand binding, 5-HT4 receptor; conditions: Table 7; read-out: h5HT4 Ki
T1 construct: expressed in transfected cells
Procedure: (§1) Other 5-HT Receptors: Other serotonin receptor binding assays were performed according to published methods: rat 5HT2C receptor (Julius et al., 1988); and 5-HT6 (Monsma, et al., 1993). The binding assays using the 5-HT4 receptor were performed according to the procedures described in U.S. Patent No. 5,766,879, the disclosure of which is hereby incorporated by reference in its entirety into this application.
(§2) Binding data were analyzed using nonlinear regression and statistical techniques available in the GraphPAD Prism package (San Diego, CA). Enzymatic assay data were derived from a standard curve of reference compound data.

T1 sequence (Q13639 whole entry): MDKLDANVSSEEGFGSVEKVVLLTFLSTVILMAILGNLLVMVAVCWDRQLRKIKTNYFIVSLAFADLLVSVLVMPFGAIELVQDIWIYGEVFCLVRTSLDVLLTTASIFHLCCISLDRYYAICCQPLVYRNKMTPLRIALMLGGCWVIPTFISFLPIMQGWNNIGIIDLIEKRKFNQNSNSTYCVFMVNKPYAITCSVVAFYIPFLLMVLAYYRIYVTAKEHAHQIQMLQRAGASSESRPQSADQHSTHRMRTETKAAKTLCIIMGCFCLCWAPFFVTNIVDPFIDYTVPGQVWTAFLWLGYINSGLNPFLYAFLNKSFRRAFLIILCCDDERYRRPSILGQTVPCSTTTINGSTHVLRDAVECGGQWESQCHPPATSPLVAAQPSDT

Compound	Ki
CN(C)c1cc(Nc2ccc(Cl)c(Cl)c2)nc(Nc2ccccc2)n1 [Example 60]	1180 nM
COc1cccc(Nc2cc(N3CCCCC3)nc(N(C)CCc3c[nH]c4ccccc34)n2)c1 [Example 17]	2610 nM

same assay, conditions: Table 8; Ki h5HT4 divided by Ki hGAL3

Compound	selectivity ratio h5HT4
CN(C)c1cc(Nc2ccc(Cl)c(Cl)c2)nc(Nc2ccccc2)n1 [Example 60]	14
COc1cccc(Nc2cc(N3CCCCC3)nc(N(C)CCc3c[nH]c4ccccc34)n2)c1 [Example 17]	30

target: T2, dopamine D5 receptor (Homo sapiens, UniProt P21918); test: Radioligand binding, dopamine D5 receptor; conditions: Table 9; read-out: hD5 Ki
T2 construct: expressed in transfected cells
T2 sequence (P21918 whole entry): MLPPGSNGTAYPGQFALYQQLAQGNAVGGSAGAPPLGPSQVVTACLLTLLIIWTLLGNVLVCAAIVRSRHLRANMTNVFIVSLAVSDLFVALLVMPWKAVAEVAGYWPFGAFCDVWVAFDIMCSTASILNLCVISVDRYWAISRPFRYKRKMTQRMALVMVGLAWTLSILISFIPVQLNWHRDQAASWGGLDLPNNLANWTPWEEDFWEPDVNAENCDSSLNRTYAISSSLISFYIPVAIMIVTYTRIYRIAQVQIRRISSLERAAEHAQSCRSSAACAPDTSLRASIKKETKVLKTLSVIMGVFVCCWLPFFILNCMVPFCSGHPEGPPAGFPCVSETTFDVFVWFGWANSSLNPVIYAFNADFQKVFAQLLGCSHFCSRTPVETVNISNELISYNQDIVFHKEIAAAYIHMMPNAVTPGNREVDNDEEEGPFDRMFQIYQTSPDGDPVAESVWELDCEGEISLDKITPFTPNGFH
From the text: (§3) Other receptors: Cell membranes expressing human dopamine D1, D2, D4 and rat D3 receptors were purchased through BioSignal, Inc. (Montreal, Canada). Binding assays using the histamine H1 receptor; dopamine receptors; and α1A, α1E, and α2 adrenergic receptors may be carried out according to the procedures described in U.S. Patent No. 5,780,485, the disclosure of which is hereby incorporated by reference in its entirety into this application. Binding assays using the dopamine D5 receptor may be carried out according to the procedures described in U.S. Patent No. 5,882,855, the disclosure of which is hereby incorporated by reference in its entirety into this application. Binding assays for the human α1D adrenergic receptor may be carried out according to the procedures described in U.S. Patent No. 6,156,518, the disclosure of which is hereby incorporated by reference in its entirety into this application.
as §2

Compound	Ki
CN(C)c1cc(Nc2ccc(Cl)c(Cl)c2)nc(Nc2ccccc2)n1 [Example 60]	538 nM
COc1cccc(Nc2cc(N3CCCCC3)nc(N(C)CCc3c[nH]c4ccccc34)n2)c1 [Example 17]	89 nM

same assay, conditions: Table 10; Ki hD5 divided by Ki hGAL3

Compound	selectivity ratio hD5
CN(C)c1cc(Nc2ccc(Cl)c(Cl)c2)nc(Nc2ccccc2)n1 [Example 60]	6
COc1cccc(Nc2cc(N3CCCCC3)nc(N(C)CCc3c[nH]c4ccccc34)n2)c1 [Example 17]	1

target: T3, human α1B adrenoceptor (Homo sapiens, UniProt P35368); test: Radioligand binding, α1B adrenergic receptor; conditions: Table 9; read-out: hα1B Ki
T3 construct: expressed in transfected cells
T3 sequence (P35368 1-520): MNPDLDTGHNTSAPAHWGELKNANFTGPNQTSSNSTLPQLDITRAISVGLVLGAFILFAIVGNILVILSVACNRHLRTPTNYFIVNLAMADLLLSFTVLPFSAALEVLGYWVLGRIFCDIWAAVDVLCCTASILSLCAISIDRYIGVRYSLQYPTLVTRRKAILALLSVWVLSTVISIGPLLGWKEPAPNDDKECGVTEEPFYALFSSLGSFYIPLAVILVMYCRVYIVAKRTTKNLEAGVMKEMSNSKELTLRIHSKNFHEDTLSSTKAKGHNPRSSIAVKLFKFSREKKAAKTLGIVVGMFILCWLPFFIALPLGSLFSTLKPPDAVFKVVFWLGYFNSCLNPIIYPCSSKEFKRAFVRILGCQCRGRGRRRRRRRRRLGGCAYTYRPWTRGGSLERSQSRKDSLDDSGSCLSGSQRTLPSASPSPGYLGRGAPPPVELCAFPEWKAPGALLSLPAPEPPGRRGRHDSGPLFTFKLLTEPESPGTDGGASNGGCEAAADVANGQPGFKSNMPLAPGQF

Compound	Ki
CN(C)c1cc(Nc2ccc(Cl)c(Cl)c2)nc(Nc2ccccc2)n1 [Example 60]	40600 nM
COc1cccc(Nc2cc(N3CCCCC3)nc(N(C)CCc3c[nH]c4ccccc34)n2)c1 [Example 17]	1170 nM

same assay, conditions: Table 10; Ki hα1B divided by Ki hGAL3

Compound	selectivity ratio hα1B
CN(C)c1cc(Nc2ccc(Cl)c(Cl)c2)nc(Nc2ccccc2)n1 [Example 60]	>100
COc1cccc(Nc2cc(N3CCCCC3)nc(N(C)CCc3c[nH]c4ccccc34)n2)c1 [Example 17]	13

target: T4, human 5HT1D (Homo sapiens, UniProt P28221); test: Radioligand binding, 5HT1D receptor ([3H]-serotonin); conditions: Table 7; read-out: h5HT1D Ki
T4 construct: expressed in transfected cells
T4 sequence (P28221 whole entry): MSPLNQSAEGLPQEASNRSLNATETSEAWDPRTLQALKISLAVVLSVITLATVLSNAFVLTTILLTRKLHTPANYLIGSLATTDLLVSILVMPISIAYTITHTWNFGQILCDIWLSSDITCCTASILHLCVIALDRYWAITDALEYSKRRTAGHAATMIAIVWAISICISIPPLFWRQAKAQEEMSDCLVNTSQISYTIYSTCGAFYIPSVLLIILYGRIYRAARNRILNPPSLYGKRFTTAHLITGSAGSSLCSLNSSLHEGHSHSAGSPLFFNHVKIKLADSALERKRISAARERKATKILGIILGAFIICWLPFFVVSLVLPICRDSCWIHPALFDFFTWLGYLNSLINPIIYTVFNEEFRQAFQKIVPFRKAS
Procedure: (§4) Human 5HT1B, 5HT1D, 5HT1E, 5HT1F, and 5HT7 Receptors: The cell lysates of LM(tk-) clonal cell line stably transfected with the genes encoding each of these 5HT receptor-subtypes were prepared as described above. Cell membranes were suspended in 50mM Tris-HCl buffer (pH 7.4 at 37°C) containing 10 mM MgCl2, 0.2 mM EDTA, 10 µM pargyline, and 0.1% ascorbate. […] Nonspecific binding was determined in the presence of 10 µM serotonin. The bound radioligand was separated by filtration through GF/B filters using a cell harvester.
as §2

Compound	Ki
CN(C)c1cc(Nc2ccc(Cl)c(Cl)c2)nc(Nc2ccccc2)n1 [Example 60]	9200 nM
COc1cccc(Nc2cc(N3CCCCC3)nc(N(C)CCc3c[nH]c4ccccc34)n2)c1 [Example 17]	1030 nM

same assay, conditions: Table 8; Ki h5HT1D divided by Ki hGAL3

Compound	selectivity ratio h5HT1D
CN(C)c1cc(Nc2ccc(Cl)c(Cl)c2)nc(Nc2ccccc2)n1 [Example 60]	>100
COc1cccc(Nc2cc(N3CCCCC3)nc(N(C)CCc3c[nH]c4ccccc34)n2)c1 [Example 17]	12

target: T5, human 5HT1E (Homo sapiens, UniProt P28566); test: Radioligand binding, 5HT1E receptor ([3H]-serotonin); conditions: Table 7; read-out: h5HT1E Ki
T5 construct: expressed in transfected cells
T5 sequence (P28566 whole entry): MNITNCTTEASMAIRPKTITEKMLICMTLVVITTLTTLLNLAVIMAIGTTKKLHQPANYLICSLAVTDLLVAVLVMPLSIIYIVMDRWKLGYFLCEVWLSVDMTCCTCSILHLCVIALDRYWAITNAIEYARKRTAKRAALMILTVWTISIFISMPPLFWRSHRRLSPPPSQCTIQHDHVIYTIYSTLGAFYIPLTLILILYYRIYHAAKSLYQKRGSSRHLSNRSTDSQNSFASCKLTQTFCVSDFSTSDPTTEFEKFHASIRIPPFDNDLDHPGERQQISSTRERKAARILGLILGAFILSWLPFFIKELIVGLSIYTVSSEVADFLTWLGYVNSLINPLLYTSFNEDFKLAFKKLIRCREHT
Procedure: as §4, §2

Compound	Ki
CN(C)c1cc(Nc2ccc(Cl)c(Cl)c2)nc(Nc2ccccc2)n1 [Example 60]	1180 nM
COc1cccc(Nc2cc(N3CCCCC3)nc(N(C)CCc3c[nH]c4ccccc34)n2)c1 [Example 17]	33500 nM

same assay, conditions: Table 8; Ki h5HT1E divided by Ki hGAL3

Compound	selectivity ratio h5HT1E
CN(C)c1cc(Nc2ccc(Cl)c(Cl)c2)nc(Nc2ccccc2)n1 [Example 60]	14
COc1cccc(Nc2cc(N3CCCCC3)nc(N(C)CCc3c[nH]c4ccccc34)n2)c1 [Example 17]	>100

target: T6, human α2B adrenoceptor (Homo sapiens, UniProt P18089); test: Radioligand binding, α2B adrenergic receptor; conditions: Table 9; read-out: hα2B Ki
T6 construct: expressed in transfected cells
T6 sequence (P18089 1-450): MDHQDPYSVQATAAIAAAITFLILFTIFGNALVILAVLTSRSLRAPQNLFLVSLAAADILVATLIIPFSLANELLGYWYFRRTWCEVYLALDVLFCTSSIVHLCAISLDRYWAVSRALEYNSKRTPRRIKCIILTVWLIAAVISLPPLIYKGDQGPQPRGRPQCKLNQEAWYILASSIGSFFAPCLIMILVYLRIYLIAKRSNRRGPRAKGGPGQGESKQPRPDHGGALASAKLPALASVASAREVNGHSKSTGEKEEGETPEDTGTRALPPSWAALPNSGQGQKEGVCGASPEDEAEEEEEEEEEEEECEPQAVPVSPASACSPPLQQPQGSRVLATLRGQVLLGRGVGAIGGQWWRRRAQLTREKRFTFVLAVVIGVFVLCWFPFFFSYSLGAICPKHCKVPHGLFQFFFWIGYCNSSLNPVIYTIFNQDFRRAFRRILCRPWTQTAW
From the text: as §3, §2

Compound	Ki
CN(C)c1cc(Nc2ccc(Cl)c(Cl)c2)nc(Nc2ccccc2)n1 [Example 60]	> 50000 nM
COc1cccc(Nc2cc(N3CCCCC3)nc(N(C)CCc3c[nH]c4ccccc34)n2)c1 [Example 17]	38700 nM

same assay, conditions: Table 10; Ki hα2B divided by Ki hGAL3

Compound	selectivity ratio hα2B
CN(C)c1cc(Nc2ccc(Cl)c(Cl)c2)nc(Nc2ccccc2)n1 [Example 60]	>100
COc1cccc(Nc2cc(N3CCCCC3)nc(N(C)CCc3c[nH]c4ccccc34)n2)c1 [Example 17]	>100

target: T7, human 5HT6 (Homo sapiens, UniProt P50406); test: Radioligand binding, 5-HT6 receptor; conditions: Table 7; read-out: h5HT6 Ki
T7 construct: expressed in transfected cells
T7 sequence (P50406 whole entry): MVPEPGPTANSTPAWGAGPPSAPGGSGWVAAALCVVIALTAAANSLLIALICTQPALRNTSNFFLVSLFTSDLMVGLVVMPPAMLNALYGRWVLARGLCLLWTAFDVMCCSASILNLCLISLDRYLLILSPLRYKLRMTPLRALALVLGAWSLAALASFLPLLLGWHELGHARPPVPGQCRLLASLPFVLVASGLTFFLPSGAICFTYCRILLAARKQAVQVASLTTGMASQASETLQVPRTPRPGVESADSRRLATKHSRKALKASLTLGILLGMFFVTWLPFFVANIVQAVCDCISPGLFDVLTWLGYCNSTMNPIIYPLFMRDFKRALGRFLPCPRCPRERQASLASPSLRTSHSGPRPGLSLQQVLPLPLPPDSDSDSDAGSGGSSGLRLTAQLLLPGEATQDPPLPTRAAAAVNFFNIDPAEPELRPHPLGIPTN
Procedure: as §1, §2

Compound	Ki
CN(C)c1cc(Nc2ccc(Cl)c(Cl)c2)nc(Nc2ccccc2)n1 [Example 60]	47500 nM
COc1cccc(Nc2cc(N3CCCCC3)nc(N(C)CCc3c[nH]c4ccccc34)n2)c1 [Example 17]	711 nM

same assay, conditions: Table 8; Ki h5HT6 divided by Ki hGAL3

Compound	selectivity ratio h5HT6
CN(C)c1cc(Nc2ccc(Cl)c(Cl)c2)nc(Nc2ccccc2)n1 [Example 60]	>100
COc1cccc(Nc2cc(N3CCCCC3)nc(N(C)CCc3c[nH]c4ccccc34)n2)c1 [Example 17]	8

target: DA transporter (Rattus norvegicus, UniProt P23977); test: Binding at native DA transporter; conditions: Table 7; native transporter, head prints r (rat); read-out: rDA Uptk Ki
Sequence (P23977 whole entry): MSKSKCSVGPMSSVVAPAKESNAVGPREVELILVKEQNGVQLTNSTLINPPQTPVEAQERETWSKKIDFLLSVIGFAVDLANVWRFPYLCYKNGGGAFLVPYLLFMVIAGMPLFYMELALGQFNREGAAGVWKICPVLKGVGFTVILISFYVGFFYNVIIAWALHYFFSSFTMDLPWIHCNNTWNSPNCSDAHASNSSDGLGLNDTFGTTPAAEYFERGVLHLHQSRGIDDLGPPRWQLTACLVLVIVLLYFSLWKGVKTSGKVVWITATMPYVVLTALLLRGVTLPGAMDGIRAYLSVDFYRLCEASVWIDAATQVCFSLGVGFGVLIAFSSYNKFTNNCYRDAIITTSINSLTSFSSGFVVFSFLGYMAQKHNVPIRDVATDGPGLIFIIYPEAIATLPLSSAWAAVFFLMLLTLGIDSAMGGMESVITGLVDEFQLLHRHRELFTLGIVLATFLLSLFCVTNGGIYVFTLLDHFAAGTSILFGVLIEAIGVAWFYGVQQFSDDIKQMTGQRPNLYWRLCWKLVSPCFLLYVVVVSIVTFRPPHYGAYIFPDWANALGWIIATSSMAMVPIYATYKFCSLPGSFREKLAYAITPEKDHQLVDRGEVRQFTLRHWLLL
Procedure: (§5) The binding properties of the compounds of the present invention were evaluated at one or more cloned receptors or native, tissue-derived transporters, using protocols described below.
(§6) The methods to determine binding affinity at native transporters are described in the following publications: 5HT transporter and NE transporter (Owens et al., 1997), and DA transporter (Javitch et al, 1984).
as §2

Compound	Ki
CN(C)c1cc(Nc2ccc(Cl)c(Cl)c2)nc(Nc2ccccc2)n1 [Example 60]	14500 nM
COc1cccc(Nc2cc(N3CCCCC3)nc(N(C)CCc3c[nH]c4ccccc34)n2)c1 [Example 17]	27200 nM

same assay, conditions: Table 8; Ki rDA Uptk divided by Ki hGAL3

Compound	selectivity ratio rDA Uptk
CN(C)c1cc(Nc2ccc(Cl)c(Cl)c2)nc(Nc2ccccc2)n1 [Example 60]	>100
COc1cccc(Nc2cc(N3CCCCC3)nc(N(C)CCc3c[nH]c4ccccc34)n2)c1 [Example 17]	>100

target: T8, human dopamine D1 (Homo sapiens, UniProt P21728); test: Radioligand binding, dopamine D1 receptor; conditions: Table 9; read-out: hD1 Ki
T8 construct: purchased BioSignal, Inc. (Montreal, Canada); host or cells: membranes of cells expressing the receptor
T8 sequence (P21728 whole entry): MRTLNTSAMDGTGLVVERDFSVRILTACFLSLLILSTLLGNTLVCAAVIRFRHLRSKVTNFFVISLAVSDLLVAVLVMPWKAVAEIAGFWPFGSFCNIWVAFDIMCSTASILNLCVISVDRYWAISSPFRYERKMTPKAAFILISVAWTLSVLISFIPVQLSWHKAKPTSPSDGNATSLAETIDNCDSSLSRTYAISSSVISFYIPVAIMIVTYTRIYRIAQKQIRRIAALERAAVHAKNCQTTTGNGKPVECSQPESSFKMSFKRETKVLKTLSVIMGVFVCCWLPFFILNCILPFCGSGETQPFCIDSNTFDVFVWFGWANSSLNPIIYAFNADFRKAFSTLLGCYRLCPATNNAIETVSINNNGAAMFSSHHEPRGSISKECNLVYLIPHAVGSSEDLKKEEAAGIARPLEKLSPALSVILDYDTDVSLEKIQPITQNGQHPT
From the text: as §3, §2

Compound	Ki
CN(C)c1cc(Nc2ccc(Cl)c(Cl)c2)nc(Nc2ccccc2)n1 [Example 60]	600 nM
COc1cccc(Nc2cc(N3CCCCC3)nc(N(C)CCc3c[nH]c4ccccc34)n2)c1 [Example 17]	516 nM

same assay, conditions: Table 10; Ki hD1 divided by Ki hGAL3

Compound	selectivity ratio hD1
CN(C)c1cc(Nc2ccc(Cl)c(Cl)c2)nc(Nc2ccccc2)n1 [Example 60]	7
COc1cccc(Nc2cc(N3CCCCC3)nc(N(C)CCc3c[nH]c4ccccc34)n2)c1 [Example 17]	6

target: 5HT transporter (Rattus norvegicus, UniProt P31652); test: Binding at native 5HT transporter; conditions: Table 7; native transporter, head prints r (rat); read-out: r5HT Uptk Ki
Sequence (P31652 whole entry): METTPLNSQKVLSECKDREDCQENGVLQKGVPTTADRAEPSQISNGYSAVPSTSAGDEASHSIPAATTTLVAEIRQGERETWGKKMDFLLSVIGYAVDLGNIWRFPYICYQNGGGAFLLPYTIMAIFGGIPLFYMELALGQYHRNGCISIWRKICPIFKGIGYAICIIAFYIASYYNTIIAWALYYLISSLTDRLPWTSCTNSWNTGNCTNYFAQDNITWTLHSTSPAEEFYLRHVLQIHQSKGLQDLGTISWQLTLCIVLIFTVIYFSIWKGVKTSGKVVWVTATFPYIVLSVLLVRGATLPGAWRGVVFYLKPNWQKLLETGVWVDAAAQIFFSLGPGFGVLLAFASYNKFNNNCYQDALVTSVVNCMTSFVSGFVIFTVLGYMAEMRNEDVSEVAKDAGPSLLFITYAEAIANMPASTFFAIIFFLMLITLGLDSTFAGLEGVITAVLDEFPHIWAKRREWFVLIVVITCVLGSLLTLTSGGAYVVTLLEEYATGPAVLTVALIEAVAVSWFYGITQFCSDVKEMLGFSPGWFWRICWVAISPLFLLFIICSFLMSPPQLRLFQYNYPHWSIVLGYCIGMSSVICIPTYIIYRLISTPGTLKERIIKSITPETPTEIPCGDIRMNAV
Procedure: as §5, §6, §2

Compound	Ki
CN(C)c1cc(Nc2ccc(Cl)c(Cl)c2)nc(Nc2ccccc2)n1 [Example 60]	25300 nM
COc1cccc(Nc2cc(N3CCCCC3)nc(N(C)CCc3c[nH]c4ccccc34)n2)c1 [Example 17]	719 nM

same assay, conditions: Table 8; Ki r5HT Uptk divided by Ki hGAL3

Compound	selectivity ratio r5HT Uptk
CN(C)c1cc(Nc2ccc(Cl)c(Cl)c2)nc(Nc2ccccc2)n1 [Example 60]	>100
COc1cccc(Nc2cc(N3CCCCC3)nc(N(C)CCc3c[nH]c4ccccc34)n2)c1 [Example 17]	8

target: T9, human 5HT7 (Homo sapiens, UniProt P34969); test: Radioligand binding, 5HT7 receptor ([3H]-serotonin); conditions: Table 7; read-out: h5HT7 Ki
T9 construct: expressed in transfected cells
T9 sequence (P34969 1-445 isoform P34969-2): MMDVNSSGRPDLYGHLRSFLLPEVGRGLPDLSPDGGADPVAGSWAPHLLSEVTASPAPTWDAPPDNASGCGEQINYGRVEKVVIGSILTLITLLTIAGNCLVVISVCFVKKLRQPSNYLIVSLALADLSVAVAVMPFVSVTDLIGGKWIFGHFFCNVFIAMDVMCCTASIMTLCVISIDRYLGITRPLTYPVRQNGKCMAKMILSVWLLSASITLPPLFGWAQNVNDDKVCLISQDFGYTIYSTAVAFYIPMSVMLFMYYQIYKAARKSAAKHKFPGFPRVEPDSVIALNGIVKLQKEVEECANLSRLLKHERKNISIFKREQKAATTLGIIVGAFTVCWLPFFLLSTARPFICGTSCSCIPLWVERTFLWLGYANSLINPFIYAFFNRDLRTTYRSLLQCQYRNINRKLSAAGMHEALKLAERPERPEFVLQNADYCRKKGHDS
Procedure: as §4, §2

Compound	Ki
CN(C)c1cc(Nc2ccc(Cl)c(Cl)c2)nc(Nc2ccccc2)n1 [Example 60]	3240 nM
COc1cccc(Nc2cc(N3CCCCC3)nc(N(C)CCc3c[nH]c4ccccc34)n2)c1 [Example 17]	1800 nM

same assay, conditions: Table 8; Ki h5HT7 divided by Ki hGAL3

Compound	selectivity ratio h5HT7
CN(C)c1cc(Nc2ccc(Cl)c(Cl)c2)nc(Nc2ccccc2)n1 [Example 60]	>30
COc1cccc(Nc2cc(N3CCCCC3)nc(N(C)CCc3c[nH]c4ccccc34)n2)c1 [Example 17]	21
